SMILES strings stand for the structures. Read-outs that look alike come from different tables or passages of the source. Where only a bound is given, the exact number is not on record here.

Test [1] relates to rats. To be noted: compared to an untreated control group; cited from earlier work.
The target of test [2] is T1, human 5-HT6 receptor (Homo sapiens, UniProt P50406).
T1 construct: host or cells: CHO-K1 cells, stably transfected; membranes prepared in house
Description: Human 5-HT6 Receptor Binding Assay ([3H]LSD, scintillation beads). A digest of the protocol: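 Membranes from CHO-K1 cells stably expressing human 5-HT6, 1.75 μg protein/well with scintillation beads, in 50 mM Tris pH 7.4, 4 mM CaCl2, saponin, ascorbic acid. Nonspecific binding with 10 μM serotonin. IC50 from variable-slope fit; Ki by Cheng-Prusoff.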

For test [3], the system named is rats. The settings on record: rat model of tonic, persistent pain; cited from earlier work.
Where [4] appears, read: membranes of CHO-K1 cells with recombinant human 5-HT6 receptor, 4 nM [3H]LSD, Cheng-Prusoff; read-out: Human 5-HT6 Ki app.

T1 sequence (P50406 whole entry): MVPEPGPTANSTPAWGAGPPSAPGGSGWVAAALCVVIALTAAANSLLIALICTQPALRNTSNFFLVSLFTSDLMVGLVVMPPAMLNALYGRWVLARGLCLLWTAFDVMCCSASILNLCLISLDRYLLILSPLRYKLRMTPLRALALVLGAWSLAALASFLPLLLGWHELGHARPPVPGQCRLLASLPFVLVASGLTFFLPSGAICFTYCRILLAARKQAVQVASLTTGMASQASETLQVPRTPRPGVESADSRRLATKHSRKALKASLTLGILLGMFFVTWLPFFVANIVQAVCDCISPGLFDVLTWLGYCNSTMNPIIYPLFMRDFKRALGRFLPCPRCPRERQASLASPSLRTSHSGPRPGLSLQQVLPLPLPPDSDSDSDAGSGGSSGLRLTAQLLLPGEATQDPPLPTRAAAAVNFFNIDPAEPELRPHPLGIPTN

As to `CN1CCN(c2cccc3c(S(=O)(=O)c4ccccc4)c[nH]c23)CC1` [RO 4368554], in test [1], the “non-REM (NREM) sleep” value was “increase”. Regarding `CCOc1cc(F)cc(S(=O)(=O)c2ccc3c(c2)OCC2NCCC32)c1` (single isomer, unassigned) [Example 48, 7-[(3-ethoxy-5-fluorophenyl)sulfonyl]-1,2,3,3a,4,9b-hexahydrochromeno[3,4-b]pyrrole], in test [2] (setting [4]), the Ki was less than 500 nM.

Regarding `O=S(=O)(c1cncc(C(F)(F)F)c1)c1ccc2c(c1)OCC1NCCC21` (single isomer, unassigned) [Example 51, 7-{[5-(trifluoromethyl)pyridin-3-yl]sulfonyl}-1,2,3,3a,4,9b-hexahydrochromeno[3,4-b]pyrrole], the Ki in test [2] (setting [4]) was less than 500 nM.

In the case of `O=S(=O)(c1ccc2c(c1)OCC1NCCC21)c1cc(F)cc(F)c1F` (single isomer, unassigned) [Example 50, 7-[(2,3,5-trifluorophenyl)sulfonyl]-1,2,3,3a,4,9b-hexahydrochromeno[3,4-b]pyrrole], in test [2] (setting [4]), the Ki was less than 500 nM. The same measure, in the same setting: as for `O=S(=O)(c1ccccc1)c1ccc2c(c1)OCC1C2CCN1C1CCCCC1` (single isomer, unassigned) [Example 63, 3-cyclohexyl-7-(phenylsulfonyl)-1,2,3,3a,4,9b-hexahydrochromeno[3,4-b]pyrrole], the figure is less than 500 nM; as for `Cc1cccc(S(=O)(=O)c2ccc3c(c2)OCC2C3CCN2C2CCC2)n1` (single isomer, unassigned) [Example 85, 3-cyclobutyl-7-[(6-methylpyridin-2-yl)sulfonyl]-1,2,3,3a,4,9b-hexahydrochromeno[3,4-b]pyrrole], greater than 1000 nM; as for `CC(C)Oc1cccc(S(=O)(=O)c2ccc3c(c2)OCC2NCCC32)c1` (single isomer, unassigned) [Example 9, 7-{[3-(propan-2-yloxy)phenyl]sulfonyl}-1,2,3,3a,4,9b-hexahydrochromeno[3,4-b]pyrrole], less than 500 nM.

In the case of `O=S(=O)(c1ccc2c(c1)OCC1NCCC21)c1cccc(F)c1F` (single isomer, unassigned) [Example 49, 7-[(2,3-difluorophenyl)sulfonyl]-1,2,3,3a,4,9b-hexahydrochromeno[3,4-b]pyrrole], in test [2] (setting [4]), the Ki was less than 500 nM. Still for that read-out and setting: as for `CC(C)Oc1cccc(S(=O)(=O)c2ccc3c(c2)OCC2NCCC32)c1` (racemic) [Example 107, 7-{[3-(propan-2-yloxy)phenyl]sulfonyl}-1,2,3,3a,4,9b-hexahydrochromeno[3,4-b]pyrrole], the figure is less than 500 nM; as for `O=S(=O)(c1cncc(Br)c1)c1ccc2c(c1)OCC1C2CCN1C1CCC1` (single isomer, unassigned) [Example 73, 7-[(5-bromopyridin-3-yl)sulfonyl]-3-cyclobutyl-1,2,3,3a,4,9b-hexahydrochromeno[3,4-b]pyrrole], 500 to 1000 nM; as for `O=S(=O)(c1ccc2c(c1)OCC1NCCC21)c1cccc2c1CCO2` (single isomer, unassigned) [Example 45, 7-(2,3-dihydro-1-benzofuran-4-ylsulfonyl)-1,2,3,3a,4,9b-hexahydrochromeno[3,4-b]pyrrole], less than 500 nM.

As for `O=S(=O)(c1ccccc1)c1ccc2c(c1)OCC1C2CCN1C1CCOC1` (single isomer, unassigned) [Example 65, 7-(phenylsulfonyl)-3-(tetrahydrofuran-3-yl)-1,2,3,3a,4,9b-hexahydrochromeno[3,4-b]pyrrole], the Ki in test [2] (setting [4]) fell in the range of 500 to 1000 nM.

`O=S(=O)(c1ccccc1)c1ccc2c(c1)OCC1NCCC21` (single isomer, unassigned) [Example 55, 7-(phenylsulfonyl)-1,2,3,3a,4,9b-hexahydrochromeno[3,4-b]pyrrole]: the Ki in test [2] (setting [4]) is less than 500 nM. For `[O-][S+](c1ccccc1)c1ccc2c(c1)OCC1NCCC21` (racemic) [Example 26, 7-(Phenylsulfinyl)-1,2,3,3a,4,9b-hexahydrochromeno[3,4-b]pyrrole], the Ki in test [2] (setting [4]) was greater than 1000 nM. On the same count and under the same terms, under `O=S(=O)(c1ccc(F)cc1)c1ccc2c(c1)OCC1NCCC21` (single isomer, unassigned) [Example 4, 7-[(4-fluorophenyl)sulfonyl]-1,2,3,3a,4,9b-hexahydrochromeno[3,4-b]pyrrole] stands less than 500 nM. Take `O=S(=O)(c1cncc(F)c1)c1ccc2c(c1)OCC1C2CCN1C1CCC1` (single isomer, unassigned) [Example 75, 3-cyclobutyl-7-[(5-fluoropyridin-3-yl)sulfonyl]-1,2,3,3a,4,9b-hexahydrochromeno[3,4-b]pyrrole]: in test [2] (setting [4]), the Ki is greater than 1000 nM. Take `COc1cncc(S(=O)(=O)c2ccc3c(c2)OCC2NCCC32)c1` (single isomer, unassigned) [Example 35, 7-[(5-methoxypyridin-3-yl)sulfonyl]-1,2,3,3a,4,9b-hexahydrochromeno[3,4-b]pyrrole]: in test [2] (Human 5-HT6 Ki app (nM), membranes of CHO-K1 cells with recombinant human 5-HT6 receptor, 4 nM [3H]LSD, Cheng-Prusoff), the Ki is greater than 1000 nM. As to `CC(C)COc1cc(F)cc(S(=O)(=O)c2ccc3c(c2)OCC2NCCC32)c1` (single isomer, unassigned) [Example 47, 7-{[3-fluoro-5-(2-methylpropoxy)phenyl]sulfonyl}-1,2,3,3a,4,9b-hexahydrochromeno[3,4-b]pyrrole], in test [2] (setting [4]), the Ki is less than 500 nM. Take `O=S(=O)(c1cncc(Cl)c1)c1ccc2c(c1)OCC1NCCC21` (single isomer, unassigned) [Example 34, 7-[(5-chloropyridin-3-yl)sulfonyl]-1,2,3,3a,4,9b-hexahydrochromeno[3,4-b]pyrrole]: in test [2] (read-out: Human 5-HT6 Ki app; membranes of CHO-K1 cells with recombinant human 5-HT6 receptor, 4 nM [3H]LSD, Cheng-Prusoff), the Ki was less than 500 nM.

For the compound `O=S(=O)(c1cccc(C(F)(F)F)c1)c1ccc2c(c1)OCC1NCCC21` (single isomer, unassigned) [Example 17, 7-{[3-(trifluoromethyl)phenyl]sulfonyl}-1,2,3,3a,4,9b-hexahydrochromeno[3,4-b]pyrrole], the Ki in test [2] (setting [4]) was less than 500 nM. Turning to `COc1ccc(NS(=O)(=O)c2sc3ccc(Cl)cc3c2C)cc1N1CCNCC1` [SB-271046], the antinociceptive effect result in test [3] is listed as “short-lived, antinociceptive effect”. On to `O=S(=O)(c1ccc2c(c1)OCC1NCCC21)c1cccc2c1CCO2` (single isomer, unassigned) [Example 37, 7-(2,3-dihydro-1-benzofuran-4-ylsulfonyl)-1,2,3,3a,4,9b-hexahydrochromeno[3,4-b]pyrrole], for which, in test [2] (setting [4]), the Ki is less than 500 nM.

Regarding `CC(C)Oc1cc(F)cc(S(=O)(=O)c2ccc3c(c2)OCC2NCCC32)c1` (single isomer, unassigned) [Example 27, 7-{[3-fluoro-5-(propan-2-yloxy)phenyl]sulfonyl}-1,2,3,3a,4,9b-hexahydrochromeno[3,4-b]pyrrole], in test [2] (setting [4]), the Ki is less than 500 nM. The same measure, in the same setting: under `[O-][S+](c1ccccc1)c1ccc2c(c1)OCC1NCCC21` (racemic) [Example 25, 7-(Phenylsulfinyl)-1,2,3,3a,4,9b-hexahydrochromeno[3,4-b]pyrrole] stands less than 500 nM; under `Cc1cccc(S(=O)(=O)c2ccc3c(c2)OCC2C3CCN2C2CCC2)n1` (single isomer, unassigned) [Example 84, 3-cyclobutyl-7-[(6-methylpyridin-2-yl)sulfonyl]-1,2,3,3a,4,9b-hexahydrochromeno[3,4-b]pyrrole], greater than 1000 nM. With `O=S(=O)(c1ccccc1)c1ccc2c(c1)OCC1C2CCN1C1CCCC1` (single isomer, unassigned) [Example 61, 3-cyclopentyl-7-(phenylsulfonyl)-1,2,3,3a,4,9b-hexahydrochromeno[3,4-b]pyrrole], in test [2] (setting [4]), the Ki was less than 500 nM. Turning to `O=S(=O)(c1cncc(Br)c1)c1ccc2c(c1)OCC1C2CCN1C1CCC1` (single isomer, unassigned) [Example 78, 7-[(5-bromopyridin-3-yl)sulfonyl]-3-cyclobutyl-1,2,3,3a,4,9b-hexahydrochromeno[3,4-b]pyrrole], the Ki in test [2] (setting [4]) was greater than 1000 nM. Regarding `O=S(=O)(c1cc(F)cc(Cl)c1)c1ccc2c(c1)OCC1NCCC21` (single isomer, unassigned) [Example 6, 7-[(3-chloro-5-fluorophenyl)sulfonyl]-1,2,3,3a,4,9b-hexahydrochromeno[3,4-b]pyrrole], the Ki in test [2] (setting [4]) is less than 500 nM. Same read-out and setting: under `O=S(=O)(c1ccc2c(c1)OCC1NCCC21)c1cc(F)cc(F)c1F` (single isomer, unassigned) [Example 42, 7-[(2,3,5-trifluorophenyl)sulfonyl]-1,2,3,3a,4,9b-hexahydrochromeno[3,4-b]pyrrole] stands less than 500 nM.

The values above are taken from patent publication US9115147B2, “Tricyclic derivatives and their pharmaceutical use and compositions” (Cephalon, Inc., priority 2009, dated 2015).
